# Key:
# Chinese sprangletop = assay: Test Example 3: herbicidal effect by foliage application, Wagner pot (Table 18, symbol D); assay type: in vivo, chinese sprangletop (Leptochloa chinensis); conditions: 320 g/ha
# Outline: (§1)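 Plants were sown in alluvial soil held under 0.1–0.5 cm standing water and grown 14 days in a greenhouse at 25–30 °C. An emulsifiable formulation, water-diluted to the set dose, was then sprayed onto the foliage, and effects were scored three weeks later using previously defined criteria.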
# green foxtail [1] = assay: Test Example 5: herbicidal effect by foliage application, plastic box (Table 20, symbol G); assay type: in vivo, green foxtail (Setaria viridis); conditions: foliage application, 320 g/ha, three weeks after application
# Outline: (§2)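 Plants were sown into sterilized diluvial soil under about 1.5 cm cover and kept in a greenhouse at 25° C. to 30° C. Fourteen days on, foliage received an even spray of the diluted emulsion. Herbicidal or crop effect was judged three weeks afterwards.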
# velvetleaf [2] = assay: Test Example 4: herbicidal effect by soil treatment (Table 19, symbol M); assay type: in vivo, velvetleaf (Abutilon theophrasti); conditions: amount of applied herbicide 320 g/ha
# Outline: (§3)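 Pre-emergence style soil spray: seeds under ~1.5 cm sterilized diluvial soil received a uniform coat of emulsion diluted to the predetermined herbicide amount. Greenhouse 25–30° C; readout at week three on previously defined criteria.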
# chickweed [3] = assay: Test Example 5: herbicidal effect by foliage application, plastic box (Table 20, symbol P); assay type: in vivo, common chickweed (Stellaria media); conditions: foliage application, 320 g/ha, three weeks after application
# Outline: as §2
# lambsquarters [4] = assay: Test Example 4: herbicidal effect by soil treatment (Table 19, symbol O); assay type: in vivo, lambsquarters (Chenopodium album); conditions: amount of applied herbicide 320 g/ha
# Outline: as §3
# barnyard grass [5] = assay: Test Example 5: herbicidal effect by foliage application, plastic box (Table 20, symbol H); assay type: in vivo, barnyard grass (Echinochloa crus-galli); conditions: foliage application, 320 g/ha, three weeks after application
# Outline: as §2
# false cleavers [6] = assay: Test Example 4: herbicidal effect by soil treatment (Table 19, symbol Q); assay type: in vivo, false cleavers (Galium spurium); conditions: amount of applied herbicide 320 g/ha
# Outline: as §3
# velvetleaf [7] = assay: Test Example 5: herbicidal effect by foliage application, plastic box (Table 20, symbol M); assay type: in vivo, velvetleaf (Abutilon theophrasti); conditions: foliage application, 320 g/ha, three weeks after application
# Outline: as §2
# windgrass [8] = assay: Test Example 4: herbicidal effect by soil treatment (Table 19, symbol L); assay type: in vivo, windgrass (Apera spica-venti); conditions: amount of applied herbicide 320 g/ha
# Outline: as §3
# persian speedwell [9] = assay: Test Example 5: herbicidal effect by foliage application, plastic box (Table 20, symbol R); assay type: in vivo, Persian speedwell (Veronica persica); conditions: foliage application, 320 g/ha, three weeks after application
# Outline: as §2
# wild oat [10] = assay: Test Example 4: herbicidal effect by soil treatment (Table 19, symbol I); assay type: in vivo, wild oat (Avena fatua); conditions: amount of applied herbicide 320 g/ha
# Outline: as §3
# windgrass [11] = assay: Test Example 5: herbicidal effect by foliage application, plastic box (Table 20, symbol L); assay type: in vivo, windgrass (Apera spica-venti); conditions: foliage application, 320 g/ha, three weeks after application
# Outline: as §2
# persian speedwell [12] = assay: Test Example 4: herbicidal effect by soil treatment (Table 19, symbol R); assay type: in vivo, Persian speedwell (Veronica persica); conditions: amount of applied herbicide 320 g/ha
# Outline: as §3
# redroot pigweed [13] = assay: Test Example 5: herbicidal effect by foliage application, plastic box (Table 20, symbol N); assay type: in vivo, redroot pigweed (Amaranthus retroflexus); conditions: foliage application, 320 g/ha, three weeks after application
# Outline: as §2
# barnyard grass [14] = assay: Test Example 3: herbicidal effect by foliage application, Wagner pot (Table 18, symbol H); assay type: in vivo, barnyard grass (Echinochloa crus-galli); conditions: 320 g/ha
# Outline: as §1
# rice flat sedge = assay: Test Example 3: herbicidal effect by foliage application, Wagner pot (Table 18, symbol E); assay type: in vivo, rice flat sedge (Cyperus iria); conditions: 320 g/ha
# Outline: as §1
# southern crabgrass [15] = assay: Test Example 5: herbicidal effect by foliage application, plastic box (Table 20, symbol F); assay type: in vivo, southern crabgrass (Digitaria ciliaris); conditions: foliage application, 320 g/ha, three weeks after application
# Outline: as §2
# green foxtail [16] = assay: Test Example 4: herbicidal effect by soil treatment (Table 19, symbol G); assay type: in vivo, green foxtail (Setaria viridis); conditions: amount of applied herbicide 320 g/ha
# Outline: as §3
# blackgrass [17] = assay: Test Example 4: herbicidal effect by soil treatment (Table 19, symbol J); assay type: in vivo, blackgrass (Alopecurus myosuroides); conditions: amount of applied herbicide 320 g/ha
# Outline: as §3
# chickweed [18] = assay: Test Example 4: herbicidal effect by soil treatment (Table 19, symbol P); assay type: in vivo, common chickweed (Stellaria media); conditions: amount of applied herbicide 320 g/ha
# Outline: as §3
# barnyard grass [19] = assay: Test Example 4: herbicidal effect by soil treatment (Table 19, symbol H); assay type: in vivo, barnyard grass (Echinochloa crus-galli); conditions: amount of applied herbicide 320 g/ha
# Outline: as §3
# Italian ryegrass [20] = assay: Test Example 4: herbicidal effect by soil treatment (Table 19, symbol K); assay type: in vivo, Italian ryegrass (Lolium multiflorum); conditions: amount of applied herbicide 320 g/ha
# Outline: as §3
# false cleavers [21] = assay: Test Example 5: herbicidal effect by foliage application, plastic box (Table 20, symbol Q); assay type: in vivo, false cleavers (Galium spurium); conditions: foliage application, 320 g/ha, three weeks after application
# Outline: as §2
# redroot pigweed [22] = assay: Test Example 4: herbicidal effect by soil treatment (Table 19, symbol N); assay type: in vivo, redroot pigweed (Amaranthus retroflexus); conditions: amount of applied herbicide 320 g/ha
# Outline: as §3
# lambsquarters [23] = assay: Test Example 5: herbicidal effect by foliage application, plastic box (Table 20, symbol O); assay type: in vivo, lambsquarters (Chenopodium album); conditions: foliage application, 320 g/ha, three weeks after application
# Outline: as §2
# southern crabgrass [24] = assay: Test Example 4: herbicidal effect by soil treatment (Table 19, symbol F); assay type: in vivo, southern crabgrass (Digitaria ciliaris); conditions: amount of applied herbicide 320 g/ha
# Outline: as §3
# Italian ryegrass [25] = assay: Test Example 5: herbicidal effect by foliage application, plastic box (Table 20, symbol K); assay type: in vivo, Italian ryegrass (Lolium multiflorum); conditions: foliage application, 320 g/ha, three weeks after application
# Outline: as §2
# wild oat [26] = assay: Test Example 5: herbicidal effect by foliage application, plastic box (Table 20, symbol I); assay type: in vivo, wild oat (Avena fatua); conditions: foliage application, 320 g/ha, three weeks after application
# Outline: as §2
# blackgrass [27] = assay: Test Example 5: herbicidal effect by foliage application, plastic box (Table 20, symbol J); assay type: in vivo, blackgrass (Alopecurus myosuroides); conditions: foliage application, 320 g/ha, three weeks after application
# Outline: as §2
structure (smiles),measurement,setting,value
CCCC(=O)Oc1c(C)nn(C)c(=O)c1-c1c(-c2ccc(OC)cc2)sc2cc(Cl)ccc12 [3-038],herbicidal effect on Chinese sprangletop (D),Chinese sprangletop,1 (Herbicidal rate of 5% or more and less than 20%)
same,"G: green foxtail, herbicidal effect grade",green foxtail [1],0 (Herbicidal rate of 5% or less (almost no effect))
same,"M: velvetleaf, herbicidal effect grade",velvetleaf [2],0 (Herbicidal rate of 5% or less (almost no effect))
same,"P: chickweed, herbicidal effect grade",chickweed [3],3 (Herbicidal rate of 40% or more and less than 70%)
same,"O: lambsquarters, herbicidal effect grade",lambsquarters [4],3 (Herbicidal rate of 40% or more and less than 70%)
same,"H: barnyard grass, herbicidal effect grade",barnyard grass [5],0 (Herbicidal rate of 5% or less (almost no effect))
same,"Q: false cleavers, herbicidal effect grade",false cleavers [6],0 (Herbicidal rate of 5% or less (almost no effect))
same,"M: velvetleaf, herbicidal effect grade",velvetleaf [7],3 (Herbicidal rate of 40% or more and less than 70%)
same,"L: windgrass, herbicidal effect grade",windgrass [8],0 (Herbicidal rate of 5% or less (almost no effect))
same,"R: persian speedwell, herbicidal effect grade",persian speedwell [9],3 (Herbicidal rate of 40% or more and less than 70%)
same,"I: wild oat, herbicidal effect grade",wild oat [10],0 (Herbicidal rate of 5% or less (almost no effect))
same,"L: windgrass, herbicidal effect grade",windgrass [11],0 (Herbicidal rate of 5% or less (almost no effect))
same,"R: persian speedwell, herbicidal effect grade",persian speedwell [12],2 (Herbicidal rate of 20% or more and less than 40%)
same,"N: redroot pigweed, herbicidal effect grade",redroot pigweed [13],1 (Herbicidal rate of 5% or more and less than 20%)
same,herbicidal effect on barnyard grass (H),barnyard grass [14],3 (Herbicidal rate of 40% or more and less than 70%)
same,herbicidal effect on rice flat sedge (E),rice flat sedge,3 (Herbicidal rate of 40% or more and less than 70%)
same,"F: southern crabgrass, herbicidal effect grade",southern crabgrass [15],0 (Herbicidal rate of 5% or less (almost no effect))
same,"G: green foxtail, herbicidal effect grade",green foxtail [16],0 (Herbicidal rate of 5% or less (almost no effect))
same,"J: blackgrass, herbicidal effect grade",blackgrass [17],0 (Herbicidal rate of 5% or less (almost no effect))
same,"P: chickweed, herbicidal effect grade",chickweed [18],1 (Herbicidal rate of 5% or more and less than 20%)
same,"H: barnyard grass, herbicidal effect grade",barnyard grass [19],0 (Herbicidal rate of 5% or less (almost no effect))
same,"K: Italian ryegrass, herbicidal effect grade",Italian ryegrass [20],0 (Herbicidal rate of 5% or less (almost no effect))
same,"Q: false cleavers, herbicidal effect grade",false cleavers [21],0 (Herbicidal rate of 5% or less (almost no effect))
same,"N: redroot pigweed, herbicidal effect grade",redroot pigweed [22],1 (Herbicidal rate of 5% or more and less than 20%)
same,"O: lambsquarters, herbicidal effect grade",lambsquarters [23],3 (Herbicidal rate of 40% or more and less than 70%)
same,"F: southern crabgrass, herbicidal effect grade",southern crabgrass [24],0 (Herbicidal rate of 5% or less (almost no effect))
same,"K: Italian ryegrass, herbicidal effect grade",Italian ryegrass [25],0 (Herbicidal rate of 5% or less (almost no effect))
same,"I: wild oat, herbicidal effect grade",wild oat [26],0 (Herbicidal rate of 5% or less (almost no effect))
same,"J: blackgrass, herbicidal effect grade",blackgrass [27],0 (Herbicidal rate of 5% or less (almost no effect))
